Test results: PMC6566410, “Novel Diamide-Based Benzenesulfonamides as Selective Carbonic Anhydrase IX Inhibitors Endowed with Antitumor Activity: Synthesis, Biological Evaluation and In Silico Insights” (International Journal of Molecular Sciences, 2019)

Legend:
Assay in all cases: NCI one-dose SRB assay
Type in all cases: cell-based
MDA-MB-231/ATCC = conditions: Homo sapiens, MDA-MB-231/ATCC (Breast Cancer), 1.00E-5 Molar, read-out: Growth Percent
Description: (§1) First, all diamide-based benzenesulfonamides herein reported 5a–h were screened for their antitumor activity at one dose (10^−5 M) assay against a panel of sixty cancer cell lines through the National Cancer Institute (NCI) Developmental Therapeutic Program (www.dtp.nci.nih.gov), according to US-NCI protocol. The cell growth and cell viability were evaluated using the sulforhodamine B (SRB) colorimetric assay.
(§2) This assay was carried out according to the protocol of the Drug Evaluation Branch, NCI, Bethesda. The cell growth and cell viability were evaluated using the sulforhodamine B (SRB) colorimetric assay, as reported earlier.

RXF 393 = conditions: Homo sapiens, RXF 393 (Renal Cancer), 1.00E-5 Molar, read-out: Growth Percent
Description: as §1, §2

HOP-62 = conditions: Homo sapiens, HOP-62 (Non-Small Cell Lung Cancer), 1.00E-5 Molar, read-out: Growth Percent
Description: as §1, §2

SK-MEL-28 = conditions: Homo sapiens, SK-MEL-28 (Melanoma), 1.00E-5 Molar, read-out: Growth Percent
Description: as §1, §2

T-47D = conditions: Homo sapiens, T47D, T-47D (Breast Cancer), 1.00E-5 Molar, read-out: Growth Percent
Description: as §1, §2

EKVX = conditions: Homo sapiens, EKVX (Non-Small Cell Lung Cancer), 1.00E-5 Molar, read-out: Growth Percent
Description: as §1, §2

SF-295 = conditions: Homo sapiens, SF-295 (CNS Cancer), 1.00E-5 Molar, read-out: Growth Percent
Description: as §1, §2

A549/ATCC = conditions: Homo sapiens, A549/ATCC (Non-Small Cell Lung Cancer), 1.00E-5 Molar, read-out: Growth Percent
Description: as §1, §2

NCI-H522 = conditions: Homo sapiens, NCI-H522 (Non-Small Cell Lung Cancer), 1.00E-5 Molar, read-out: Growth Percent
Description: as §1, §2

SK-MEL-2 = conditions: Homo sapiens, SK-MEL-2 (Melanoma), 1.00E-5 Molar, read-out: Growth Percent
Description: as §1, §2

DU-145 = conditions: Homo sapiens, DU-145 (Prostate Cancer), 1.00E-5 Molar, read-out: Growth Percent
Description: as §1, §2

A498 = conditions: Homo sapiens, A498 (Renal Cancer), 1.00E-5 Molar, read-out: Growth Percent
Description: as §1, §2

M14 = conditions: Homo sapiens, M14 (Melanoma), 1.00E-5 Molar, read-out: Growth Percent
Description: as §1, §2

SK-MEL-5 = conditions: Homo sapiens, SK-MEL-5 (Melanoma), 1.00E-5 Molar, read-out: Growth Percent
Description: as §1, §2

HCC-2998 = conditions: Homo sapiens, HCC-2998 (Colon Cancer), 1.00E-5 Molar, read-out: Growth Percent
Description: as §1, §2

MDA-MB-435 = conditions: Homo sapiens, MDA-MB-435 (Melanoma), 1.00E-5 Molar, read-out: Growth Percent
Description: as §1, §2

SW-620 = conditions: Homo sapiens, SW-620 (Colon Cancer), 1.00E-5 Molar, read-out: Growth Percent
Description: as §1, §2

OVCAR-5 = conditions: Homo sapiens, OVCAR-5 (Ovarian Cancer), 1.00E-5 Molar, read-out: Growth Percent
Description: as §1, §2

SNB-19 = conditions: Homo sapiens, SNB-19 (CNS Cancer), 1.00E-5 Molar, read-out: Growth Percent
Description: as §1, §2

NCI-H322M = conditions: Homo sapiens, NCI-H322M (Non-Small Cell Lung Cancer), 1.00E-5 Molar, read-out: Growth Percent
Description: as §1, §2

OVCAR-4 = conditions: Homo sapiens, OVCAR-4 (Ovarian Cancer), 1.00E-5 Molar, read-out: Growth Percent
Description: as §1, §2

K-562 = conditions: Homo sapiens, K562, K-562 (Leukemia), 1.00E-5 Molar, read-out: Growth Percent
Description: as §1, §2

NCI/ADR-RES = conditions: Homo sapiens, NCI/ADR-RES (Ovarian Cancer), 1.00E-5 Molar, read-out: Growth Percent
Description: as §1, §2

NCI-H23 = conditions: Homo sapiens, NCI-H23 (Non-Small Cell Lung Cancer), 1.00E-5 Molar, read-out: Growth Percent
Description: as §1, §2

SN12C = conditions: Homo sapiens, SN12C (Renal Cancer), 1.00E-5 Molar, read-out: Growth Percent
Description: as §1, §2

SF-539 = conditions: Homo sapiens, SF-539 (CNS Cancer), 1.00E-5 Molar, read-out: Growth Percent
Description: as §1, §2

HCT-116 = conditions: Homo sapiens, HCT-116 (Colon Cancer), 1.00E-5 Molar, read-out: Growth Percent
Description: as §1, §2

LOX IMVI = conditions: Homo sapiens, LOX IMVI (Melanoma), 1.00E-5 Molar, read-out: Growth Percent
Description: as §1, §2

CCRF-CEM = conditions: Homo sapiens, CCRF-CEM (Leukemia), 1.00E-5 Molar, read-out: Growth Percent
Description: as §1, §2

786-0 = conditions: Homo sapiens, 786-0 (Renal Cancer), 1.00E-5 Molar, read-out: Growth Percent
Description: as §1, §2

SF-268 = conditions: Homo sapiens, SF-268 (CNS Cancer), 1.00E-5 Molar, read-out: Growth Percent
Description: as §1, §2

Cc1ccc(C=C(NC(=O)c2ccccc2)C(=O)Nc2ccc(S(N)(=O)=O)cc2)cc1 [Compound 5d, N-(3-Oxo-3-((4-sulfamoylphenyl)amino)-1-(p-tolyl)prop-1-en-2-yl)benzamide]
activity at 10 µM (MDA-MB-231/ATCC): 104%
activity at 10 µM (RXF 393): 116%
activity at 10 µM (HOP-62): 114%
activity at 10 µM (SK-MEL-28): 118%
activity at 10 µM (T-47D): 101%
activity at 10 µM (EKVX): 108%
activity at 10 µM (SF-295): 106%
activity at 10 µM (A549/ATCC): 95.4%
activity at 10 µM (NCI-H522): 89.9%
activity at 10 µM (SK-MEL-2): 102%
activity at 10 µM (DU-145): 105%
activity at 10 µM (A498): 103%
activity at 10 µM (M14): 110%
activity at 10 µM (SK-MEL-5): 97%
activity at 10 µM (HCC-2998): 100%
activity at 10 µM (MDA-MB-435): 92.9%
activity at 10 µM (SW-620): 113%
activity at 10 µM (OVCAR-5): 103%
activity at 10 µM (SNB-19): 103%
activity at 10 µM (NCI-H322M): 108%
activity at 10 µM (OVCAR-4): 90.6%
activity at 10 µM (K-562): 94.6%
activity at 10 µM (NCI/ADR-RES): 99.3%
activity at 10 µM (NCI-H23): 94.9%
activity at 10 µM (SN12C): 94.8%
activity at 10 µM (SF-539): 102%
activity at 10 µM (HCT-116): 99.3%
activity at 10 µM (LOX IMVI): 99%
activity at 10 µM (CCRF-CEM): 102%
activity at 10 µM (786-0): 100%
activity at 10 µM (SF-268): 106%

COc1ccc(C=C(NC(=O)c2ccccc2)C(=O)Nc2ccc(S(N)(=O)=O)cc2)cc1 [Compound 5e, N-(1-(4-Methoxyphenyl)-3-oxo-3-((4-sulfamoylphenyl)amino)prop-1-en-2-yl)benzamide]
activity at 10 µM (MDA-MB-231/ATCC): 110%
activity at 10 µM (RXF 393): 110%
activity at 10 µM (HOP-62): 104%
activity at 10 µM (SK-MEL-28): 106%
activity at 10 µM (T-47D): 101%
activity at 10 µM (EKVX): 105%
activity at 10 µM (SF-295): 112%
activity at 10 µM (A549/ATCC): 103%
activity at 10 µM (NCI-H522): 90.5%
activity at 10 µM (SK-MEL-2): 102%
activity at 10 µM (DU-145): 113%
activity at 10 µM (A498): 102%
activity at 10 µM (M14): 107%
activity at 10 µM (SK-MEL-5): 100%
activity at 10 µM (HCC-2998): 106%
activity at 10 µM (MDA-MB-435): 97.5%
activity at 10 µM (SW-620): 101%
activity at 10 µM (OVCAR-5): 108%
activity at 10 µM (SNB-19): 100%
activity at 10 µM (NCI-H322M): 110%
activity at 10 µM (OVCAR-4): 111%
activity at 10 µM (K-562): 101%
activity at 10 µM (NCI/ADR-RES): 106%
activity at 10 µM (NCI-H23): 99.6%
activity at 10 µM (SN12C): 97.1%
activity at 10 µM (SF-539): 96.8%
activity at 10 µM (HCT-116): 105%
activity at 10 µM (LOX IMVI): 99.1%
activity at 10 µM (CCRF-CEM): 106%
activity at 10 µM (786-0): 105%
activity at 10 µM (SF-268): 113%

NS(=O)(=O)c1ccc(NC(=O)C(=Cc2ccc(Cl)cc2Cl)NC(=O)c2ccccc2)cc1 [Compound 5b, N-(1-(2,4-Dichlorophenyl)-3-oxo-3-((4-sulfamoylphenyl)amino)prop-1-en-2-yl)benzamide]
activity at 10 µM (MDA-MB-231/ATCC): 105%
activity at 10 µM (RXF 393): 96%
activity at 10 µM (HOP-62): 95.7%
activity at 10 µM (SK-MEL-28): 110%
activity at 10 µM (T-47D): 87.5%
activity at 10 µM (EKVX): 99.6%
activity at 10 µM (SF-295): 104%
activity at 10 µM (A549/ATCC): 105%
activity at 10 µM (NCI-H522): 80.3%
activity at 10 µM (SK-MEL-2): 95.3%
activity at 10 µM (DU-145): 109%
activity at 10 µM (A498): 95%
activity at 10 µM (M14): 102%
activity at 10 µM (SK-MEL-5): 90.2%
activity at 10 µM (HCC-2998): 103%
activity at 10 µM (MDA-MB-435): 97.7%
activity at 10 µM (SW-620): 104%
activity at 10 µM (OVCAR-5): 108%
activity at 10 µM (SNB-19): 95.6%
activity at 10 µM (NCI-H322M): 102%
activity at 10 µM (OVCAR-4): 97.7%
activity at 10 µM (K-562): 88.2%
activity at 10 µM (NCI/ADR-RES): 98.2%
activity at 10 µM (NCI-H23): 107%
activity at 10 µM (SN12C): 94.7%
activity at 10 µM (SF-539): 95.7%
activity at 10 µM (HCT-116): 97.3%
activity at 10 µM (LOX IMVI): 96.2%
activity at 10 µM (CCRF-CEM): 105%
activity at 10 µM (786-0): 104%
activity at 10 µM (SF-268): 94.5%
